The record followed here is US20080207864A1, “Organosilanes, Process For Production of the Same, and Use Thereof” (priority 2004, published 2008).

The nature of this data set: Solubility in an organic solvent. In kind it is physicochemical. Particulars: 1 μml of compound added to 1 ml solvent, mixed 15 minutes; chloroform for Examples 7 to 8, toluene for Examples 9 to 10 and Comparative Example 1. The protocol: Solubility of organic silane compounds synthesized in Examples 7 to 10, and 6,8,11,13-tetra(N,N-diphenylamino)pentacene of Comparative Example 1 in an organic solvent was assessed. More particularly, 1 μml of each compound was added to 1 ml of the following organic solvent, and this was mixed for 15 minutes.
Examples 9 to 10 and Comparative Example 1
Each of organic silane compounds of Examples 7 to 10 was dissolved in an organic solvent to obtain a transparent solution.

For the compound `c1ccc(N(c2ccccc2)c2ccc(N(c3ccccc3)c3ccccc3)c3cc4c(N(c5ccccc5)c5ccccc5)c5cc6ccccc6cc5c(N(c5ccccc5)c5ccccc5)c4cc23)cc1` [Comparative Example 1, 6,8,11,13-tetra(N,N-diphenylamino)pentacene], the “Solubility in an organic solvent” value was “only dispersed and not dissolved in an organic solvent”.
